According to patent US6599705B2, “Regulation of fungal gene expression” (priority 1997, dated 2003):

Legend:
C. albicans = assay: dig assay (nonfilamentous agar invasion) on YPD gradient plates; format: cell-based; details: YPD agar with fluconazole gradient, two days, washed with water (FIG. 12)
Source text: We have discovered that pathogenic fungi can display similar digging behavior, characterized by increased invasion into or adherence to a defined substrate. […] This behavior is similar to the reported digging behavior of S. cerevisiae. As is true for S. cerevisiae, non-hyphal agar invasion by any given C. albicans mutant strain correlates with the ability of that strain to form filaments under filament-inducing conditions (e.g., agar+serum). Thus, screening for compounds that block the digging phenotype in fungi will allow for identification of compounds that block filament formation and, as a result, pathogenesis. These compounds are considered useful as fungicides or fungistats. Similarly, screening for compounds that increase substrate invasion will allow for identification of compounds which may also increase production or yield of secondary metabolites.
An example of the dig assay is given below. To test whether a chemical compound would affect the nonfilamentous agar invasion behavior of nonmutant S. cerevisiae or C. albicans at concentrations much lower than the lowest growth inhibitory concentration, these fungi were spotted onto agar plates containing rich medium (YPD) and a gradient of the antifungal fluconazole. The plates were then incubated for two days at optimum growth temperatures and washed with water. […]

S. cerevisiae = assay: as above; format: cell-based; details: YPD agar with fluconazole gradient, two days, washed with water (FIG. 12)
Source text: Another example of a screen is based on the observation that yeast from haploid S. cerevisiae invade agar when grown on rich (YPD) medium without forming pseudohyphae. This nonfilamentous invasion behavior has been termed “digging,” and the assay used to detect this behavior has been termed the “dig assay.” Roberts and Fink, supra. […] Mutant strains defective for digging are referred to as “dig minus,” or “dig−.” The correlation of pseudohyphal invasion and behavior in the dig assay is an essential aspect of this screen. The dig assay is comparatively easy to perform relative to pseudohyphal invasion assays, and, as it occurs in haploid cells, is more amenable to genetic approaches that rely upon recessive mutations.
An example of the dig assay is given below. To test whether a chemical compound would affect the nonfilamentous agar invasion behavior of nonmutant S. cerevisiae or C. albicans at concentrations much lower than the lowest growth inhibitory concentration, these fungi were spotted onto agar plates containing rich medium (YPD) and a gradient of the antifungal fluconazole. The plates were then incubated for two days at optimum growth temperatures and washed with water. […] This assay can be performed on other dimorphic fungi, such as U. maydis, as well as on other fungi. […]

## OC(Cn1cncn1)(Cn1cncn1)c1ccc(F)cc1F [fluconazole]
C. albicans
  inhibition of agar invasion relative to growth inhibition: inhibition of agar invasion at significantly lower concentrations of fluconazole than those necessary to inhibit growth
S. cerevisiae
  inhibition of agar invasion relative to growth inhibition: inhibition of agar invasion at significantly lower concentrations of fluconazole than those necessary to inhibit growth
